Assay: xn = mol fraction of the nth substance listed
Conditions: 101 kPa, Liquid, Taylor dispersion method, x1 = 0

| SMILES | binary diffusion coefficient (293.2 K) [m2/s] | binary diffusion coefficient (298.2 K) [m2/s] | binary diffusion coefficient (303.2 K) [m2/s] | binary diffusion coefficient (313.2 K) [m2/s] | binary diffusion coefficient (323.2 K) [m2/s] | binary diffusion coefficient (333.2 K) [m2/s] |
| --- | --- | --- | --- | --- | --- | --- |
| CC[C@H](C)[C@H](N)C(=O)O [2-amino-3-methylpentanoic acid] + O | 6.41e-10 | 7.44e-10 | 8.36e-10 | 1.07e-09 | 1.33e-09 | 1.62e-09 |
| NCC(=O)O [2-aminoacetic acid] + O | 9.36e-10 | 1.06e-09 | 1.22e-09 | 1.5e-09 | 1.86e-09 | 2.22e-09 |
| CCCCC(N)C(=O)O (stereo not given) [2-aminohexanoic acid] + O | 6.41e-10 | 7.36e-10 | 8.27e-10 | 1.07e-09 | 1.32e-09 | 1.6e-09 |
| CCC(N)C(=O)O (stereo not drawn) [(.+-.)-α-aminobutyric acid] + O | 7.29e-10 | 8.39e-10 | 9.48e-10 | 1.2e-09 | 1.49e-09 | 1.8e-09 |
| CCC[C@H](N)C(=O)O [(S)-2-aminopentanoic acid] + O | 6.77e-10 | 7.75e-10 | 8.79e-10 | 1.12e-09 | 1.39e-09 | 1.69e-09 |
| C[C@H](N)C(=O)O [(S)-2-aminopropanoic acid] + O | 8.06e-10 | 9.3e-10 | 1.04e-09 | 1.31e-09 | 1.63e-09 | 1.96e-09 |
| CC(C)(C)C(N)C(=O)O (stereo not drawn) [DL-tert-leucine] + O | 6.31e-10 | 7.29e-10 | 8.46e-10 | 1.06e-09 | 1.33e-09 | 1.61e-09 |
| CC(C)C[C@H](N)C(=O)O [L-leucine] + O | 6.41e-10 | 7.35e-10 | 8.24e-10 | 1.07e-09 | 1.33e-09 | 1.6e-09 |
| CC(C)[C@H](N)C(=O)O [L-valine] + O | 6.76e-10 | 7.77e-10 | 8.91e-10 | 1.12e-09 | 1.4e-09 | 1.7e-09 |
| CC[C@@H](C)[C@H](N)C(=O)O [allo-L-isoleucine] + O | 6.42e-10 | 7.38e-10 | 8.44e-10 | 1.07e-09 | 1.33e-09 | 1.61e-09 |

— the NIST ThermoML archive (doi:10.1021/je060149b)
